# Measurements reported in ChEMBL document CHEMBL3044907, “Sensitivity of Fusarium verticillioides isolates from rice to a novel cyanoacrylate fungicide” (Crop Prot, 2012).
# How the values were obtained:
# Fusarium verticillioides [1] = test: (§1) Fungicidal activity against Fusarium verticilliodes isolate JS06 in rice seeds harvested from bakane diseased plants assessed as number of seedlings abnormally elongated or exhibiting symptoms of damping-off at 6.25 ug/ml at 30 degC incubated for 72 hr measured after 3 days under greenhouse trials (reference value: 25.2%); type: functional
# Fusarium verticillioides [2] = test: as §1, with “JS08” for “JS06”, “13.0%)” for “25.2%)”; type: functional
# Fusarium verticillioides [3] = test: as §1, with “JS04” for “JS06”, “25” for “6.25”, “16.2%)” for “25.2%)”; type: functional
# Fusarium verticillioides [4] = test: as §1, with “YZ05” for “JS06”, “8.33” for “6.25”, “33.3%)” for “25.2%)”; type: functional
# Fusarium verticillioides [5] = test: as §1, with “YZ12” for “JS06”, “25” for “6.25”, “45.8%)” for “25.2%)”; type: functional
# Fusarium verticillioides [6] = test: as §1, with “YZ11” for “JS06”, “8.33” for “6.25”, “33.7%)” for “25.2%)”; type: functional
# Fusarium verticillioides [7] = test: as §1, with “YZ07” for “JS06”, “8.33” for “6.25”, “43.2%)” for “25.2%)”; type: functional
# Fusarium verticillioides [8] = test: as §1, with “YZ10” for “JS06”, “49.2%)” for “25.2%)”; type: functional
# Fusarium verticillioides [9] = test: as §1, with “25” for “6.25”; type: functional
# Fusarium verticillioides [10] = test: as §1, with “YZ01” for “JS06”, “25” for “6.25”, “33.6%)” for “25.2%)”; type: functional
# Fusarium verticillioides [11] = test: as §1, with “JS09” for “JS06”, “32.6%)” for “25.2%)”; type: functional
# Fusarium verticillioides [12] = test: as §1, with “YZ26” for “JS06”, “25” for “6.25”, “49.3%)” for “25.2%)”; type: functional
# Oryza sativa = test: Effect on germination of healthy Oryza sativa (rice) seed cultivar Xinliangyou 6 at 6.25 to 25 ug/ml at 25 degC after 72 hr; type: ADME, organism-based; conditions: in vivo
# Fusarium verticillioides [13] = test: as §1, with “YZ01” for “JS06”, “33.6%)” for “25.2%)”; type: functional
# Fusarium verticillioides [14] = test: as §1, with “YZ06” for “JS06”, “8.33” for “6.25”, “45.3%)” for “25.2%)”; type: functional
# Fusarium verticillioides [15] = test: as §1, with “N04” for “JS06”, “8.33” for “6.25”, “14.5%)” for “25.2%)”; type: functional
# Fusarium verticillioides [16] = test: as §1, with “YZ13” for “JS06”, “25” for “6.25”, “26.8%)” for “25.2%)”; type: functional
# Fusarium verticillioides [17] = test: as §1, with “JS04” for “JS06”, “12.5” for “6.25”, “16.2%)” for “25.2%)”; type: functional
# Fusarium verticillioides [18] = test: as §1, with “N02” for “JS06”, “41.2%)” for “25.2%)”; type: functional
# Fusarium verticillioides [19] = test: as §1, with “YZ26” for “JS06”, “49.3%)” for “25.2%)”; type: functional
# Fusarium verticillioides [20] = test: as §1, with “YZ13” for “JS06”, “12.5” for “6.25”, “26.8%)” for “25.2%)”; type: functional
# Fusarium verticillioides [21] = test: as §1, with “YZ22” for “JS06”, “25” for “6.25”, “22.5%)” for “25.2%)”; type: functional
# Fusarium verticillioides [22] = test: as §1, with “JS09” for “JS06”, “25” for “6.25”, “32.6%)” for “25.2%)”; type: functional
# Fusarium verticillioides [23] = test: as §1, with “JS08” for “JS06”, “12.5” for “6.25”, “13.0%)” for “25.2%)”; type: functional
# Fusarium verticillioides [24] = test: as §1, with “N03” for “JS06”, “8.33” for “6.25”, “36.1%)” for “25.2%)”; type: functional
# Fusarium verticillioides [25] = test: as §1, with “JS08” for “JS06”, “25” for “6.25”, “13.0%)” for “25.2%)”; type: functional
# Fusarium verticillioides [26] = test: as §1, with “JS01” for “JS06”, “32.5%)” for “25.2%)”; type: functional
# Fusarium verticillioides [27] = test: as §1, with “YZ10” for “JS06”, “12.5” for “6.25”, “49.2%)” for “25.2%)”; type: functional
# Fusarium verticillioides [28] = test: as §1, with “N06” for “JS06”, “9.6%)” for “25.2%)”; type: functional
# Fusarium verticillioides [29] = test: as §1, with “YZ22” for “JS06”, “8.33” for “6.25”, “22.5%)” for “25.2%)”; type: functional
# Fusarium verticillioides [30] = test: as §1, with “YZ12” for “JS06”, “12.5” for “6.25”, “45.8%)” for “25.2%)”; type: functional
# Fusarium verticillioides [31] = test: as §1, with “N02” for “JS06”, “8.33” for “6.25”, “41.2%)” for “25.2%)”; type: functional
# Fusarium verticillioides [32] = test: Fungicidal activity against Fusarium verticilliodes assessed as mycelial growth inhibition at 25 degC after 3 to 5 days; type: functional, organism-based
# Fusarium verticillioides [33] = test: as §1, with “YZ06” for “JS06”, “45.3%)” for “25.2%)”; type: functional
# Fusarium verticillioides [34] = test: as §1, with “YZ03” for “JS06”, “25” for “6.25”, “21.3%)” for “25.2%)”; type: functional
# Fusarium verticillioides [35] = test: as §1, with “YZ26” for “JS06”, “8.33” for “6.25”, “49.3%)” for “25.2%)”; type: functional
# Fusarium verticillioides [36] = test: as §1, with “YZ01” for “JS06”, “12.5” for “6.25”, “33.6%)” for “25.2%)”; type: functional
smiles,measurement,setting,value
CCOC(=O)/C(C#N)=C(/N)c1ccccc1,Activity,Fusarium verticillioides [1],1.7%
same,Activity,Fusarium verticillioides [2],3.6%
same,Activity,Fusarium verticillioides [3],0%
same,Activity,Fusarium verticillioides [4],0%
same,Activity,Fusarium verticillioides [5],0%
same,Activity,Fusarium verticillioides [6],0.8%
same,Activity,Fusarium verticillioides [7],0%
same,Activity,Fusarium verticillioides [8],3.8%
same,Activity,Fusarium verticillioides [9],0%
same,Activity,Fusarium verticillioides [10],0%
same,Activity,Fusarium verticillioides [11],4.2%
same,Activity,Fusarium verticillioides [12],0.2%
same,Activity,Oryza sativa,Non-toxic
same,Activity,Fusarium verticillioides [13],3.7%
same,Activity,Fusarium verticillioides [14],0%
same,Activity,Fusarium verticillioides [15],0%
same,Activity,Fusarium verticillioides [16],0%
same,Activity,Fusarium verticillioides [17],0%
same,Activity,Fusarium verticillioides [18],2.2%
same,Activity,Fusarium verticillioides [19],4.1%
same,Activity,Fusarium verticillioides [20],0%
same,Activity,Fusarium verticillioides [21],0%
same,Activity,Fusarium verticillioides [22],0%
same,Activity,Fusarium verticillioides [23],0%
same,Activity,Fusarium verticillioides [24],0%
same,Activity,Fusarium verticillioides [25],0%
same,Activity,Fusarium verticillioides [26],1.6%
same,Activity,Fusarium verticillioides [27],0%
same,Activity,Fusarium verticillioides [28],0.8%
same,Activity,Fusarium verticillioides [29],0.5%
same,Activity,Fusarium verticillioides [30],0%
same,Activity,Fusarium verticillioides [31],0%
same,EC50,Fusarium verticillioides [32],0.316 µg/mL
same,Activity,Fusarium verticillioides [33],1%
same,Activity,Fusarium verticillioides [34],0%
same,Activity,Fusarium verticillioides [35],1.2%
same,Activity,Fusarium verticillioides [36],0%
